Data taken from patent US10537521B2 (priority 2016, dated 2020).
Counter-ions that a name gives are not always drawn.

Assay: Example 1: multiple-dose randomized 3-way crossover PK study of two IV tramadol regimens vs 100 mg oral q6h
Conditions: human, plasma, plasma
[1] = iv, 50 mg, plasma concentration, Mean, 50 mg IV Dose (h 0, 2, 4, then q4h to h 44), Time […]

Experimental: A fitted curve was obtained because the second oral peak was not measured in the study. For the modeling portion of the analysis, a validated Phoenix® WinNonlin® program version 6.4 (Certara) was used for PK analysis, simulation, graphics, tables and statistical calculations. […] For purposes of nonlinear regression, the data were weighted as 1/observed. Predicted concentration-time data were calculated based on the individual fitted PK parameters.

SMILES: COc1cccc([C@]2(O)CCCC[C@H]2CN(C)C)c1 (racemic) [Tramadol, (±)cis-2-[(dimethylamino)methyl]-1-(3-methoxyphenyl) cyclohexanol hydrochloride]
- Cmax (iv, 50 mg, Cmax(0-2), 50 mg IV regimen (h 0, 2, 4, then q4h to h 44), first dose, mean): 0.294 µg/mL
- Cmax (iv, 50 mg, Cmax(2-4), 50 mg IV regimen (h 0, 2, 4, then q4h to h 44), mean): 0.479 µg/mL
- Cmax (iv, 50 mg, Cmax(44-48), 50 mg IV regimen (h 0, 2, 4, then q4h to h 44), steady-state, mean): 0.711 µg/mL
- Cmax (iv, 50 mg, Cmax, 50 mg IV regimen (h 0, 2, 4, then q4h to h 44), mean): 0.736 µg/mL
- Tmax (iv, 50 mg, Tmax(0-2), 50 mg IV regimen (h 0, 2, 4, then q4h to h 44), mean): 0.54 h
- Tmax (iv, 50 mg, Tmax(2-4), 50 mg IV regimen (h 0, 2, 4, then q4h to h 44), mean): 2.36 h
- Tmax (iv, 50 mg, Tmax(44-48), 50 mg IV regimen (h 0, 2, 4, then q4h to h 44), mean): 44.3 h
- Tmax (iv, 50 mg, Tmax, 50 mg IV regimen (h 0, 2, 4, then q4h to h 44), mean): 30 h
- concentration at 0 h (iv, 50 mg, plasma concentration, Mean, 50 mg IV Dose (h 0, 2, 4, then q4h to h 44), Time 0.00 hr): 0.000726 µg/mL
- concentration at 0.25 h (iv, 50 mg, plasma concentration, Mean, 50 mg IV Dose (h 0, 2, 4, then q4h to h 44), Time 0.250 hr): 0.253 µg/mL
- concentration at 0.5 h (iv, 50 mg, plasma concentration, Mean, 50 mg IV Dose (h 0, 2, 4, then q4h to h 44), Time 0.500 hr): 0.261 µg/mL
- concentration at 0.75 h (iv, 50 mg, plasma concentration, Mean, 50 mg IV Dose (h 0, 2, 4, then q4h to h 44), Time 0.750 hr): 0.243 µg/mL
- concentration at 1 h (iv, 50 mg, plasma concentration, Mean, 50 mg IV Dose (h 0, 2, 4, then q4h to h 44), Time 1.00 hr): 0.231 µg/mL
- concentration at 2 h (iv, 50 mg, plasma concentration, Mean, 50 mg IV Dose (h 0, 2, 4, then q4h to h 44), Time 2.00 hr): 0.188 µg/mL
- concentration at 2.5 h (iv, 50 mg, plasma concentration, Mean, 50 mg IV Dose (h 0, 2, 4, then q4h to h 44), Time 2.50 hr): 0.442 µg/mL
- concentration at 4 h (iv, 50 mg, plasma concentration, Mean, 50 mg IV Dose (h 0, 2, 4, then q4h to h 44), Time 4.00 hr): 0.335 µg/mL
- concentration at 4.25 h (iv, 50 mg, plasma concentration, Mean, 50 mg IV Dose (h 0, 2, 4, then q4h to h 44), Time 4.25 hr): 0.662 µg/mL
- concentration at 4.5 h (iv, 50 mg, plasma concentration, Mean, 50 mg IV Dose (h 0, 2, 4, then q4h to h 44), Time 4.50 hr): 0.592 µg/mL
- concentration at 5 h (iv, 50 mg, plasma concentration, Mean, 50 mg IV Dose (h 0, 2, 4, then q4h to h 44), Time 5.00 hr): 0.527 µg/mL
- concentration at 6 h (iv, 50 mg, plasma concentration, Mean, 50 mg IV Dose (h 0, 2, 4, then q4h to h 44), Time 6.00 hr): 0.433 µg/mL
- concentration at 8 h (iv, 50 mg, plasma concentration, Mean, 50 mg IV Dose (h 0, 2, 4, then q4h to h 44), Time 8.00 hr): 0.346 µg/mL
- concentration at 12 h (iv, 50 mg, plasma concentration, Mean, 50 mg IV Dose (h 0, 2, 4, then q4h to h 44), Time 12.0 hr): 0.353 µg/mL
- concentration at 20 h (iv, 50 mg, plasma concentration, Mean, 50 mg IV Dose (h 0, 2, 4, then q4h to h 44), Time 20.0 hr): 0.419 µg/mL
- concentration at 32 h (iv, 50 mg, plasma concentration, Mean, 50 mg IV Dose (h 0, 2, 4, then q4h to h 44), Time 32.0 hr): 0.422 µg/mL
- concentration at 40 h (iv, 50 mg, plasma concentration, Mean, 50 mg IV Dose (h 0, 2, 4, then q4h to h 44), Time 40.0 hr): 0.424 µg/mL
- concentration at 44 h (iv, 50 mg, plasma concentration, Mean, 50 mg IV Dose (h 0, 2, 4, then q4h to h 44), Time 44.0 hr): 0.424 µg/mL
- concentration at 44.3 h (iv, 50 mg, plasma concentration, Mean, 50 mg IV Dose (h 0, 2, 4, then q4h to h 44), Time 44.3 hr): 0.697 µg/mL
- concentration at 44.5 h (iv, 50 mg, plasma concentration, Mean, 50 mg IV Dose (h 0, 2, 4, then q4h to h 44), Time 44.5 hr): 0.655 µg/mL
- concentration at 44.8 h (iv, 50 mg, plasma concentration, Mean, 50 mg IV Dose (h 0, 2, 4, then q4h to h 44), Time 44.8 hr): 0.645 µg/mL
- concentration at 45 h (iv, 50 mg, plasma concentration, Mean, 50 mg IV Dose (h 0, 2, 4, then q4h to h 44), Time 45.0 hr): 0.61 µg/mL
- concentration at 45.5 h (iv, 50 mg, plasma concentration, Mean, 50 mg IV Dose (h 0, 2, 4, then q4h to h 44), Time 45.5 hr): 0.553 µg/mL
- concentration at 46 h (iv, 50 mg, plasma concentration, Mean, 50 mg IV Dose (h 0, 2, 4, then q4h to h 44), Time 46.0 hr): 0.528 µg/mL
- concentration at 47 h (iv, 50 mg, plasma concentration, Mean, 50 mg IV Dose (h 0, 2, 4, then q4h to h 44), Time 47.0 hr): 0.489 µg/mL
- concentration at 16 h [1]: 0.388 µg/mL
- concentration at 24 h [1]: 0.413 µg/mL
- concentration at 48 h [1]: 0.434 µg/mL
- AUC(0-t) (iv, 75 mg, AUC0-24, 75 mg IV regimen (h 0, 3, 6, then q6h to h 42), mean): 9.93 µg·h/mL
- AUC(0-t) (iv, 75 mg, AUC0-48, 75 mg IV regimen (h 0, 3, 6, then q6h to h 42), mean): 19.3 µg·h/mL
- AUC (iv, 75 mg, AUC24-48, 75 mg IV regimen (h 0, 3, 6, then q6h to h 42), mean): 9.93 µg·h/mL
- AUC (iv, 75 mg, AUCtau 1, 75 mg IV regimen (h 0, 3, 6, then q6h to h 42), first dosing interval, mean): 1.25 µg·h/mL
- AUC (iv, 75 mg, AUCtau n, 75 mg IV regimen (h 0, 3, 6, then q6h to h 42), last dosing interval, mean): 3.04 µg·h/mL
- concentration at 3 h (iv, 75 mg, C3, 75 mg IV regimen (h 0, 3, 6, then q6h to h 42), mean): 0.237 µg/mL
- concentration at 48 h (iv, 75 mg, C48 (T48), 75 mg IV regimen (h 0, 3, 6, then q6h to h 42), mean): 0.354 µg/mL
- concentration at 1 h (iv, 75 mg, C1 h, 75 mg IV regimen (h 0, 3, 6, then q6h to h 42), mean): 0.361 µg/mL
- Cmax (iv, 75 mg, Cmax(0-3), 75 mg IV regimen (h 0, 3, 6, then q6h to h 42), first dose, mean): 0.484 µg/mL
- Cmax (iv, 75 mg, Cmax(3-6), 75 mg IV regimen (h 0, 3, 6, then q6h to h 42), mean): 0.756 µg/mL
- Cmax (iv, 75 mg, Cmax(42-48), 75 mg IV regimen (h 0, 3, 6, then q6h to h 42), steady-state, mean): 0.827 µg/mL
- Cmax (iv, 75 mg, Cmax, 75 mg IV regimen (h 0, 3, 6, then q6h to h 42), mean): 0.932 µg/mL
- Tmax (iv, 75 mg, Tmax(0-3), 75 mg IV regimen (h 0, 3, 6, then q6h to h 42), mean): 0.5 h
- Tmax (iv, 75 mg, Tmax(3-6), 75 mg IV regimen (h 0, 3, 6, then q6h to h 42), mean): 3.31 h
- Tmax (iv, 75 mg, Tmax(42-48), 75 mg IV regimen (h 0, 3, 6, then q6h to h 42), mean): 42.4 h
- Tmax (iv, 75 mg, Tmax, 75 mg IV regimen (h 0, 3, 6, then q6h to h 42), mean): 15.9 h
- AUC(0-t) (po, 100 mg, AUC0-24, 100 mg oral q6h to h 42, mean): 7.49 µg·h/mL
- AUC(0-t) (po, 100 mg, AUC0-48, 100 mg oral q6h to h 42, mean): 19.1 µg·h/mL
- AUC (po, 100 mg, AUC24-48, 100 mg oral q6h to h 42, mean): 11.7 µg·h/mL
- AUC (po, 100 mg, AUCtau 1, 100 mg oral q6h to h 42, first dosing interval, mean): 1.49 µg·h/mL
- AUC (po, 100 mg, AUCtau n, 100 mg oral q6h to h 42, last dosing interval, mean): 3.48 µg·h/mL
- concentration at 6 h (po, 100 mg, C6, 100 mg oral q6h to h 42, mean): 0.197 µg/mL
- concentration at 48 h (po, 100 mg, C48 (T48), 100 mg oral q6h to h 42, mean): 0.497 µg/mL
- concentration at 1 h (po, 100 mg, C1 h, 100 mg oral q6h to h 42, mean): 0.278 µg/mL
- Cmax (po, 100 mg, Cmax(0-6), 100 mg oral q6h to h 42, first dose, mean): 0.377 µg/mL
- Cmax (po, 100 mg, Cmax(42-48), 100 mg oral q6h to h 42, steady-state, mean): 0.701 µg/mL
- Cmax (po, 100 mg, Cmax, 100 mg oral q6h to h 42, mean): 0.701 µg/mL
- Tmax (po, 100 mg, Tmax(0-6), 100 mg oral q6h to h 42, mean): 1.54 h
- Tmax (po, 100 mg, Tmax(42-48), 100 mg oral q6h to h 42, mean): 44 h
- Tmax (po, 100 mg, Tmax, 100 mg oral q6h to h 42, mean): 44 h
